Legend:
Assay in all cases: MIC by broth microdilution method
Format in all cases: cell-based
Parameters in all cases: key: +: Bacterial growth; −: No bacterial growth
Helicobacter pylori G27 = conditions: G27 (Sensitive), 72 h
Description: (§1) 2.1 Detection of minimum inhibitory concentration (MIC, 100 µL system) of zinc linolenate for Helicobacter pylori by a broth microdilution method
(§2) (1) Zinc linolenate (2 mg/mL) is prepared.
(§3) (3) Bacterial solution preparation: the Helicobacter pylori grown in a log phase on a solid plate is taken to make a bacterial suspension with a BHI culture medium, the absorbance (OD600) is adjusted to 0.3 (1×10^8 CFU/mL), and the bacterial suspension is diluted 10 times to 1×10^7 CFU/mL for later use.
(§4) (4) Inoculation of bacterial solution: 10 μL of bacterial solution above is taken and added to the 1-8th wells (the concentration of the bacterial solution per well is about 1.0×10^6 CFU/mL). Culture is performed for 72 h to judge the result. The drug concentrations of the 1-7th wells are 64, 32, 16, 8, 4, 2, and 1 μg/mL, respectively.
(§5) The experiment only makes sense when the bacteria obviously grow in the 8th well, i.e. the positive control well (without antibiotics). When a single drift occurs in the microdilution method, the maximum drug concentration that inhibits bacterial growth should be recorded. If there are multiple drifts, the results should not be reported and the experiment should be repeated. The experiment is repeated 3 times for each drug.

[1] = test system: Helicobacter pylori HP159; conditions: HP159 (Levofloxacin, clarithromycin and metronidazole resistant), 72 h
Description: as §1, §2, §3, §4, §5

[2] = test system: Helicobacter pylori HP160; conditions: HP160 (Metronidazole resistant), 72 h
Description: as §1, §2, §3, §4, §5

[3] = test system: Helicobacter pylori HP161; conditions: HP161 (Clarithromycin resistant), 72 h
Description: as §1, §2, §3, §4, §5

[4] = test system: Helicobacter pylori HP162; conditions: HP162 (Levofloxacin resistant), 72 h
Description: as §1, §2, §3, §4, §5

[5] = test system: Helicobacter pylori HP163; conditions: HP163 (Levofloxacin and metronidazole resistant), 72 h
Description: as §1, §2, §3, §4, §5

[6] = test system: Helicobacter pylori HP26695; conditions: HP26695 (Sensitive), 72 h
Description: as §1, §2, §3, §4, §5

[7] = test system: Helicobacter pylori HP285; conditions: HP285 (Clarithromycin and metronidazole resistant), 72 h
Description: as §1, §2, §3, §4, §5

[8] = test system: Helicobacter pylori MSD132; conditions: MSD132 (Sensitive), 72 h
Description: as §1, §2, §3, §4, §5

[9] = test system: Helicobacter pylori NSH57; conditions: NSH57 (Sensitive), 72 h
Description: as §1, §2, §3, §4, §5

Structure (SMILES): CC/C=C\C/C=C\C/C=C\CCCCCCCC(=O)[O-].CC/C=C\C/C=C\C/C=C\CCCCCCCC(=O)[O-].[Zn+2] [zinc linolenate]
- Bacterial growth (Helicobacter pylori G27; zinc linolenate 1 μg/ml): +
- Bacterial growth (Helicobacter pylori G27; zinc linolenate 2 μg/ml): +
- Bacterial growth (Helicobacter pylori G27; zinc linolenate 4 μg/ml): −
- Bacterial growth (Helicobacter pylori G27; zinc linolenate 8 μg/ml): −
- Bacterial growth (Helicobacter pylori G27; zinc linolenate 16 μg/ml): −
- Bacterial growth (Helicobacter pylori G27; zinc linolenate 32 μg/ml): −
- Bacterial growth (Helicobacter pylori G27; zinc linolenate 64 μg/ml): −
- Bacterial growth ([1]; zinc linolenate 1 μg/ml): +
- Bacterial growth ([1]; zinc linolenate 2 μg/ml): +
- Bacterial growth ([1]; zinc linolenate 4 μg/ml): +
- Bacterial growth ([1]; zinc linolenate 8 μg/ml): −
- Bacterial growth ([1]; zinc linolenate 16 μg/ml): −
- Bacterial growth ([1]; zinc linolenate 32 μg/ml): −
- Bacterial growth ([1]; zinc linolenate 64 μg/ml): −
- Bacterial growth ([2]; zinc linolenate 1 μg/ml): +
- Bacterial growth ([2]; zinc linolenate 2 μg/ml): +
- Bacterial growth ([2]; zinc linolenate 4 μg/ml): −
- Bacterial growth ([2]; zinc linolenate 8 μg/ml): −
- Bacterial growth ([2]; zinc linolenate 16 μg/ml): −
- Bacterial growth ([2]; zinc linolenate 32 μg/ml): −
- Bacterial growth ([2]; zinc linolenate 64 μg/ml): −
- Bacterial growth ([3]; zinc linolenate 1 μg/ml): +
- Bacterial growth ([3]; zinc linolenate 2 μg/ml): +
- Bacterial growth ([3]; zinc linolenate 4 μg/ml): +
- Bacterial growth ([3]; zinc linolenate 8 μg/ml): −
- Bacterial growth ([3]; zinc linolenate 16 μg/ml): −
- Bacterial growth ([3]; zinc linolenate 32 μg/ml): −
- Bacterial growth ([3]; zinc linolenate 64 μg/ml): −
- Bacterial growth ([4]; zinc linolenate 1 μg/ml): +
- Bacterial growth ([4]; zinc linolenate 2 μg/ml): −
- Bacterial growth ([4]; zinc linolenate 4 μg/ml): −
- Bacterial growth ([4]; zinc linolenate 8 μg/ml): −
- Bacterial growth ([4]; zinc linolenate 16 μg/ml): −
- Bacterial growth ([4]; zinc linolenate 32 μg/ml): −
- Bacterial growth ([4]; zinc linolenate 64 μg/ml): −
- Bacterial growth ([5]; zinc linolenate 1 μg/ml): +
- Bacterial growth ([5]; zinc linolenate 2 μg/ml): +
- Bacterial growth ([5]; zinc linolenate 4 μg/ml): +
- Bacterial growth ([5]; zinc linolenate 8 μg/ml): −
- Bacterial growth ([5]; zinc linolenate 16 μg/ml): −
- Bacterial growth ([5]; zinc linolenate 32 μg/ml): −
- Bacterial growth ([5]; zinc linolenate 64 μg/ml): −
- Bacterial growth ([6]; zinc linolenate 1 μg/ml): +
- Bacterial growth ([6]; zinc linolenate 2 μg/ml): +
- Bacterial growth ([6]; zinc linolenate 4 μg/ml): +
- Bacterial growth ([6]; zinc linolenate 8 μg/ml): −
- Bacterial growth ([6]; zinc linolenate 16 μg/ml): −
- Bacterial growth ([6]; zinc linolenate 32 μg/ml): −
- Bacterial growth ([6]; zinc linolenate 64 μg/ml): −
- Bacterial growth ([7]; zinc linolenate 1 μg/ml): +
- Bacterial growth ([7]; zinc linolenate 2 μg/ml): +
- Bacterial growth ([7]; zinc linolenate 4 μg/ml): +
- Bacterial growth ([7]; zinc linolenate 8 μg/ml): −
- Bacterial growth ([7]; zinc linolenate 16 μg/ml): −
- Bacterial growth ([7]; zinc linolenate 32 μg/ml): −
- Bacterial growth ([7]; zinc linolenate 64 μg/ml): −
- Bacterial growth ([8]; zinc linolenate 1 μg/ml): +
- Bacterial growth ([8]; zinc linolenate 2 μg/ml): +
- Bacterial growth ([8]; zinc linolenate 4 μg/ml): +
- Bacterial growth ([8]; zinc linolenate 8 μg/ml): −
- Bacterial growth ([8]; zinc linolenate 16 μg/ml): −
- Bacterial growth ([8]; zinc linolenate 32 μg/ml): −
- Bacterial growth ([8]; zinc linolenate 64 μg/ml): −
- Bacterial growth ([9]; zinc linolenate 1 μg/ml): +
- Bacterial growth ([9]; zinc linolenate 2 μg/ml): +
- Bacterial growth ([9]; zinc linolenate 4 μg/ml): +
- Bacterial growth ([9]; zinc linolenate 8 μg/ml): −
- Bacterial growth ([9]; zinc linolenate 16 μg/ml): −
- Bacterial growth ([9]; zinc linolenate 32 μg/ml): −
- Bacterial growth ([9]; zinc linolenate 64 μg/ml): −
